Results as given in the supplement of paper PMC12463676, “Small-molecule dissolution of stress granules by redox modulation benefits ALS models” (Nature Chemical Biology, 2025).

How the values were obtained:
potassium arsenate = compound: O=[As]([O-])(O)O.[K+] [potassium arsenate]; experiment: thermal stability z-score vs DMSO; higher = more thermally stabilized by treatment; details: HeLa; arsenate concentration 1 mM
Method: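 Cellular thermal proteome profiling in HeLa cells treated with 1 mM arsenate for 1 h (DMSO pretreatment), heated to ten temperatures (37-66.3 °C). Soluble protein was quantified by TMT mass spectrometry relative to DMSO controls; the thermal stability score was transformed to a z-score; mean of n = 3 experiments.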

lipoamide = compound: NC(=O)CCCCC1CCSS1 [lipoamide]; experiment: as above; details: HeLa, lipoamide concentration 100 µM
Method: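 Cellular thermal proteome profiling in HeLa cells. Cells were treated with 100 µM lipoamide for 1 h, with or without 1 mM arsenate for a further 1 h, then heated to ten temperatures (37-66.3 °C), and soluble protein was quantified by TMT mass spectrometry relative to 0.1% DMSO controls. The thermal stability score (sum of log2 fold changes minus the abundance score) was transformed to a z-score; mean of n = 3 experiments.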

[1] = arsenate co-treatment: 1 mM arsenate 1 h
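Further: each temperature applied for 3 min, abundance score taken as mean log2 fold change at the two lowest temperatures, z-score obtained by mean subtraction and division by SD.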

Sequence of UniProt Q8IWJ2 (Q8IWJ2 whole entry): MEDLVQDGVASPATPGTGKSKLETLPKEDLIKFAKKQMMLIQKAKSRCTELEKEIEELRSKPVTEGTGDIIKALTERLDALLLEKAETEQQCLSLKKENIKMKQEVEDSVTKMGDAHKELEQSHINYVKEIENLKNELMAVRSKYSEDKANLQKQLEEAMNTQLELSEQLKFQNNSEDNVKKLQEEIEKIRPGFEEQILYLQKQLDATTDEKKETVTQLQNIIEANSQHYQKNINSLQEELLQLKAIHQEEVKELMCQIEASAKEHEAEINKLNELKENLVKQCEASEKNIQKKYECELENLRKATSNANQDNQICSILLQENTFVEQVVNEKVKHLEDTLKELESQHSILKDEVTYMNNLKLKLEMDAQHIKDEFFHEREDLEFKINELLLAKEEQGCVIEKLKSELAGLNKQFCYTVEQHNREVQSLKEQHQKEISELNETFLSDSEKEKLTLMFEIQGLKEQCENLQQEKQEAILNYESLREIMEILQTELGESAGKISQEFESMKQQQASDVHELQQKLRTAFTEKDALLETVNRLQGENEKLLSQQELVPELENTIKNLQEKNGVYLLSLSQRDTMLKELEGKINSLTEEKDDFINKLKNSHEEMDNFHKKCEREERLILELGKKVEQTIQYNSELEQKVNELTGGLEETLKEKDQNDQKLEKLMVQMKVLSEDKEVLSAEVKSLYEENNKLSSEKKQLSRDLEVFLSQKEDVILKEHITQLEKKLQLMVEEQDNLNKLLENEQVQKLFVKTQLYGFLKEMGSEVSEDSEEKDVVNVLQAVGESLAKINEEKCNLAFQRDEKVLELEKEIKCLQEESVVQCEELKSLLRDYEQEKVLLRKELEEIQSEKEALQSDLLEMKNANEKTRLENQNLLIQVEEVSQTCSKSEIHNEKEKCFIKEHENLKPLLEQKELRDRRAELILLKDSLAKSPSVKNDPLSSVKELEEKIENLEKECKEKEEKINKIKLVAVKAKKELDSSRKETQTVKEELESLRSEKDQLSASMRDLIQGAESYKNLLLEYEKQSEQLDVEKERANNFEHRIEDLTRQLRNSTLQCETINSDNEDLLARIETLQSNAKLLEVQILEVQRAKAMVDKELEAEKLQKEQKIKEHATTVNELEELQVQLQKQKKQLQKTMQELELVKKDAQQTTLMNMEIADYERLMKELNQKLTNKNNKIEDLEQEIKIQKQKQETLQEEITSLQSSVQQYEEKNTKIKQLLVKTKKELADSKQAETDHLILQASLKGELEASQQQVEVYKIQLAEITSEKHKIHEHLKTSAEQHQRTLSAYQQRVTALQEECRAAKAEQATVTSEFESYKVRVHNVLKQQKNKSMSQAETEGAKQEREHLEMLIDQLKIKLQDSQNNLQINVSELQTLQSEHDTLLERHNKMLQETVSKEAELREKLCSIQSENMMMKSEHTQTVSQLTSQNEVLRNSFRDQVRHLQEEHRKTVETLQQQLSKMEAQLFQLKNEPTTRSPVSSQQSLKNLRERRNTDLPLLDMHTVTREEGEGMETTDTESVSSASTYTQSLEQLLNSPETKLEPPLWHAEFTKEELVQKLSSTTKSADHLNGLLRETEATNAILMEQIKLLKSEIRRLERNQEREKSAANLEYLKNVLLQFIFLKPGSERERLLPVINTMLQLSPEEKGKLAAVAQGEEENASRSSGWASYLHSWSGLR
Sequence of UniProt O00178 (O00178 whole entry): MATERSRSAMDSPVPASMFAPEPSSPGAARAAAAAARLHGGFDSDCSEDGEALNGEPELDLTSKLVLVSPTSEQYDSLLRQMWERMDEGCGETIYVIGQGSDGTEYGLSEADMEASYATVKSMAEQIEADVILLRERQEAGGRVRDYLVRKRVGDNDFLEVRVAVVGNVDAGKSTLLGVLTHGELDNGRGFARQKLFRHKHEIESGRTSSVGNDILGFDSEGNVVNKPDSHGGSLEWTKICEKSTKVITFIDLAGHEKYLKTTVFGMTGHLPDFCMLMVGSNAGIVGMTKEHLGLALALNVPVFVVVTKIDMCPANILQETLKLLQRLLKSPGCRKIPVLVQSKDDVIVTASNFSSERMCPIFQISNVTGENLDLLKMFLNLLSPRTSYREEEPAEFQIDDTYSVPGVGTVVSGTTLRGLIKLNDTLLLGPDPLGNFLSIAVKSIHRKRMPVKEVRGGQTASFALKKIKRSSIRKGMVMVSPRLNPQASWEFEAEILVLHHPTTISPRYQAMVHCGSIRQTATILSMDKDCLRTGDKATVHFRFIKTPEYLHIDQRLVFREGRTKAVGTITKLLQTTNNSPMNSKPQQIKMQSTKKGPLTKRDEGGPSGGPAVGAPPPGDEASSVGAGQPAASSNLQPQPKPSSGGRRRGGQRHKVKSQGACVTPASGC
Sequence of UniProt Q9NPI6 (Q9NPI6 whole entry): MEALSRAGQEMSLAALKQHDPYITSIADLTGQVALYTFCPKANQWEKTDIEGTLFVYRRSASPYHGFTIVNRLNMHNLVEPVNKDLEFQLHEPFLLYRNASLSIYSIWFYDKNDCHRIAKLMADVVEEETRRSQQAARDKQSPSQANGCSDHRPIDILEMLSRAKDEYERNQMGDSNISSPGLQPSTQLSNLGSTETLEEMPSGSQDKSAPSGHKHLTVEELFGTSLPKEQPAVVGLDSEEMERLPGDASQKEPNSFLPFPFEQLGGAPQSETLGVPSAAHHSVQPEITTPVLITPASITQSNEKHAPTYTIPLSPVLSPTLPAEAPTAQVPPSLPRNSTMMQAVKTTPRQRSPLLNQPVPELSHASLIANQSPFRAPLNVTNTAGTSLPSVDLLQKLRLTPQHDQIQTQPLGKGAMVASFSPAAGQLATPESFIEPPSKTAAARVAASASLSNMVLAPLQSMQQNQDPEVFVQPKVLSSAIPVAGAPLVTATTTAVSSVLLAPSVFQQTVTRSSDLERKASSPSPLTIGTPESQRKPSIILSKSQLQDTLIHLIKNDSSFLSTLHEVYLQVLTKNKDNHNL
Sequence of UniProt O14548 (O14548 whole entry): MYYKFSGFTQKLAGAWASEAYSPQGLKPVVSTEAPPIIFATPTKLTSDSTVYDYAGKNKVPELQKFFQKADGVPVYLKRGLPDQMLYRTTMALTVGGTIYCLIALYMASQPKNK
Sequence of UniProt Q16832 (Q16832 whole entry): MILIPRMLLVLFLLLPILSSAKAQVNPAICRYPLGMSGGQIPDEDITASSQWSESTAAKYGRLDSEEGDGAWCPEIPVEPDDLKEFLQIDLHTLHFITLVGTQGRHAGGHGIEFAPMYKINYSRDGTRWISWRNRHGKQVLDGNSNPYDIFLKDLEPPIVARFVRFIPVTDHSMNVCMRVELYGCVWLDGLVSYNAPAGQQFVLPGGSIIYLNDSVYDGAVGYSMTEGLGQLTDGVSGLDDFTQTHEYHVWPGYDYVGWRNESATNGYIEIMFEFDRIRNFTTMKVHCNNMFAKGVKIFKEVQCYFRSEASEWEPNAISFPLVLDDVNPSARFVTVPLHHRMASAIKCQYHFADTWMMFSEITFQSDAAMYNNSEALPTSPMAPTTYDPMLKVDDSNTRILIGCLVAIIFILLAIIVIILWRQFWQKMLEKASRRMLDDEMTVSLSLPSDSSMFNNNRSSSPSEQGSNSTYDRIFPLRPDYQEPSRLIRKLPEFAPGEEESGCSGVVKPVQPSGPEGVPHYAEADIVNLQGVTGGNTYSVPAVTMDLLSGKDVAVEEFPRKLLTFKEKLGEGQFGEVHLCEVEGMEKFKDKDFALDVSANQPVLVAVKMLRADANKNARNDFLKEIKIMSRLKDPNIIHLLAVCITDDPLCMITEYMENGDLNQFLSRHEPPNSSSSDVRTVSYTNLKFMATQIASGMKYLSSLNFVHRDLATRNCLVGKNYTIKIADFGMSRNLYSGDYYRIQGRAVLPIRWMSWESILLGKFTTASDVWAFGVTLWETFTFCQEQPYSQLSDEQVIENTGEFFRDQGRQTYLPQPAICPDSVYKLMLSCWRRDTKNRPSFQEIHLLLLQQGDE
Sequence of UniProt O94842 (O94842 whole entry): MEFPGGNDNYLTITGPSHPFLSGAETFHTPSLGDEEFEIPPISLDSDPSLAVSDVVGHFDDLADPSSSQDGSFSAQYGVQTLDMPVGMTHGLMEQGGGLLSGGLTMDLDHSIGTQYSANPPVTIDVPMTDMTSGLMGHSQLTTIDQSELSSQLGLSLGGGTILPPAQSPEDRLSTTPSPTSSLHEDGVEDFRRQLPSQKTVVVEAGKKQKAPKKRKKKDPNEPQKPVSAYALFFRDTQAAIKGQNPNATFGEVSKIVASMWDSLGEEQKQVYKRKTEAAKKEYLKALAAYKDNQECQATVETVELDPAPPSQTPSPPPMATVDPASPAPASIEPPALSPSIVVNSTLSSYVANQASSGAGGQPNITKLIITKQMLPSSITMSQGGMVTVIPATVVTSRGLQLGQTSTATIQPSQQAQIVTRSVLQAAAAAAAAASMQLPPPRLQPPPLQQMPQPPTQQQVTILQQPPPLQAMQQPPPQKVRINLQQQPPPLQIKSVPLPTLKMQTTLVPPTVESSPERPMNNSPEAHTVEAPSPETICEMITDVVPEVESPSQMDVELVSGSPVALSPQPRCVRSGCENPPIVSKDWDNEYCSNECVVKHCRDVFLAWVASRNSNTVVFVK
Sequence of UniProt Q4G0I0 (Q4G0I0 whole entry): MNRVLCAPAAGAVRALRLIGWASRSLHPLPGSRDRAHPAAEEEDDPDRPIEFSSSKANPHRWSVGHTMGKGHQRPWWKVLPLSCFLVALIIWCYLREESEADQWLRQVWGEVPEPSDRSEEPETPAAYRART
Sequence of UniProt O75521 (O75521 whole entry): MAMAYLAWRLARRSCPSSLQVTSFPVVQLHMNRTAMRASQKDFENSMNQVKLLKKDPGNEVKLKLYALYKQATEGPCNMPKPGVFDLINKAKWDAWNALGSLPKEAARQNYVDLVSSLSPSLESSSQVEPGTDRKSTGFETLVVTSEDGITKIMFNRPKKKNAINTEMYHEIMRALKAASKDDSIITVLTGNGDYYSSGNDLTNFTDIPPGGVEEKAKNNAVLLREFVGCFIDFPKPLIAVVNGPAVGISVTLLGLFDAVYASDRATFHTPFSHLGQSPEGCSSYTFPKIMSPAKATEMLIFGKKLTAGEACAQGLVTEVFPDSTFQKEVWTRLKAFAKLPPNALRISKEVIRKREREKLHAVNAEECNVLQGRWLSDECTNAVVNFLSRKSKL

Target	thermal stability z-score (potassium arsenate)	thermal stability z-score (lipoamide; [1])	thermal stability z-score (lipoamide; arsenate co-treatment: none)
RBBP6 (UniProt Q7Z6E9)	-0.263	0.06	-0.0854
FAM114A1 (UniProt Q8IWE2)	0.106	-0.474	-0.338
RPL27A (UniProt P46776)	-0.482	0.419	0.401
NMD3 (UniProt Q96D46)	-0.0507	0.204	0.115
SRSF10 (UniProt O75494)	2.99	1.16	0.452
TOX4 (UniProt O94842)	-0.108	-0.0663	-0.0734
TAP2 (UniProt Q03519)	0.366	-0.828	-0.526
AK2 (UniProt P54819)	-0.84	-0.717	-0.168
DNMBP (UniProt Q6XZF7)	0.897	-0.142	-0.138
CCSMST1 (UniProt Q4G0I0)	0.624	2.5	2.37
ETFA (UniProt P13804)	-1.17	-0.622	0.0342
FAM162A (UniProt Q96A26)	-0.244	0.884	0.302
EHBP1 (UniProt Q8NDI1)	-0.166	0.0509	0.183
TMPO	2.87	0.194	0.0563
UniProt G3V599	0.593	-0.297	-0.663
SPCS2 (UniProt Q15005)	-0.373	-0.33	-0.411
FKBP14 (UniProt Q9NWM8)	-0.591	-3.79	-2.85
PPFIA1 (UniProt Q13136)	0.263	-0.28	-0.239
LRRC59 (UniProt Q96AG4)	-1.86	-0.768	-0.195
FAU (UniProt P62861)	1.15	1.7	1.21
GTPBP1 (UniProt O00178)	0.493	-0.325	-0.107
MRPS5 (UniProt P82675)	0.0198	-0.158	0.0282
KIAA0196 (UniProt Q12768)	0.0921	-0.101	0.0446
GBA (UniProt P04062)	0.33	-0.361	-0.352
HMOX2 (UniProt P30519)	0.895	0.676	1.34
SMNDC1 (UniProt O75940)	-0.5	-0.102	-0.117
GCC2 (UniProt Q8IWJ2)	0.827	-0.88	-0.098
COX7A2L (UniProt O14548)	-0.221	0.761	0.522

Target	thermal stability z-score (potassium arsenate)	thermal stability z-score (lipoamide; [1])	thermal stability z-score (lipoamide; arsenate co-treatment: none)
FRG1 (UniProt Q14331)	0.312	0.146	0.243
DCP1A (UniProt Q9NPI6)	-0.248	-0.2	-0.107
ECI2 (UniProt O75521)	-0.44	0.0605	-0.724
DDR2 (UniProt Q16832)	-0.163	-0.251	-0.189
UniProt F5H5P2|BCKDHA	0.969	-0.168	-0.738
HMMR (UniProt O75330)	0.594	-0.103	0.233
EMC8 (UniProt O43402)	0.348	0.0729	0.209
NUB1 (UniProt Q9Y5A7)	1.15	-0.391	0.421
TAB2 (UniProt Q9NYJ8)	-0.292	0.0348	-0.0384
ABCB8 (UniProt Q9NUT2)	-1.1	-0.84	-0.813
CAPNS1 (UniProt P04632)	0.0106	0.532	0.582
DDHD2 (UniProt O94830)	-0.0424	0.3	-0.141
RNF4 (UniProt P78317)	-0.192	-1.23	-0.848
MRPL57 (UniProt Q9BQC6)	0.671	0.281	0.104
ATG4C (UniProt Q96DT6)	0.0488	0.0282	0.0873
MFN2 (UniProt O95140)	0.252	-0.0814	-0.338
NUDT21 (UniProt O43809)	-0.633	1.57	0.0301
INPP5A (UniProt Q14642)	0.656	-1.28	-0.144
STX5 (UniProt Q13190)	0.0014	0.00395	-0.95
DPYSL2 (UniProt Q16555)	-0.691	0.645	0.115
KIAA1217 (UniProt Q5T5P2)	0.188	-0.00757	-0.0174
TNFAIP1 (UniProt Q13829)	-0.727	-0.526	-0.699
RBPJ (UniProt Q06330)	-0.676	0.252	-0.0841
MARK1 (UniProt Q9P0L2)	0.249	-0.126	-0.153
FBXO30 (UniProt Q8TB52)	-0.959	-0.102	-0.208
ASAP2 (UniProt O43150)	-0.394	-0.641	-0.527
STX16 (UniProt O14662)	0.553	-0.63	0.276
